The record followed here is patent US20250026748A1, “N-(5-SUBSTITUTED-[(1,3,4-THIADIAZOLYL) OR (THIAZOLYL)])(SUBSTITUTED)CARBOXAMIDE COMPOUNDS AND USE THEREOF FOR INHIBITING HUMAN POLYMERASE THETA” (Repare Therapeutics Inc., priority 2021, published 2025).

This assay has as its target PolQ ATPase enzyme (1-894) (Homo sapiens (Human), UniProt O75417). Briefly: Polθ ATPase enzymatic assay (0.5 nM enzyme concentration), ADP-Glo. The note with it: average IC50; 0.5 nM PolQ ATPase enzyme (1-894). It is filed as biochemical. As for the experimental part: PolQ ATPase enzyme (1-894) at 0.5 nM is incubated with a 10-point concentration response of inhibitors for 15 min at rt in the following buffer: 50 mM Tris Cl pH 7.5, 10% glycerol, 5 mM DTT, 10 mM MgCl2, 0.1 mg/ml BSA. Following pre-incubation with inhibitors, DNA (Fork C) at 20 nM and ATP at 100 μM are added to start the reaction. Enzymatic reaction proceeds at rt for 180 min ATP consumption is measured using the ADP-Glo assay from Promega. Luminescence is read on the Envision and IC50 are determined using the variable slope 4-parameters equation.
Oligos are annealed by heating at 9500 for 5 min in the following buffer (10 mM Tris-HCl pH7.5, 50 mM NaCl, 1 mM EDTA) and cooled to rt. […]

A value given as a limit tells only on which side of the number the result lay.

Sequence of PolQ ATPase enzyme (1-894) (O75417 1-894): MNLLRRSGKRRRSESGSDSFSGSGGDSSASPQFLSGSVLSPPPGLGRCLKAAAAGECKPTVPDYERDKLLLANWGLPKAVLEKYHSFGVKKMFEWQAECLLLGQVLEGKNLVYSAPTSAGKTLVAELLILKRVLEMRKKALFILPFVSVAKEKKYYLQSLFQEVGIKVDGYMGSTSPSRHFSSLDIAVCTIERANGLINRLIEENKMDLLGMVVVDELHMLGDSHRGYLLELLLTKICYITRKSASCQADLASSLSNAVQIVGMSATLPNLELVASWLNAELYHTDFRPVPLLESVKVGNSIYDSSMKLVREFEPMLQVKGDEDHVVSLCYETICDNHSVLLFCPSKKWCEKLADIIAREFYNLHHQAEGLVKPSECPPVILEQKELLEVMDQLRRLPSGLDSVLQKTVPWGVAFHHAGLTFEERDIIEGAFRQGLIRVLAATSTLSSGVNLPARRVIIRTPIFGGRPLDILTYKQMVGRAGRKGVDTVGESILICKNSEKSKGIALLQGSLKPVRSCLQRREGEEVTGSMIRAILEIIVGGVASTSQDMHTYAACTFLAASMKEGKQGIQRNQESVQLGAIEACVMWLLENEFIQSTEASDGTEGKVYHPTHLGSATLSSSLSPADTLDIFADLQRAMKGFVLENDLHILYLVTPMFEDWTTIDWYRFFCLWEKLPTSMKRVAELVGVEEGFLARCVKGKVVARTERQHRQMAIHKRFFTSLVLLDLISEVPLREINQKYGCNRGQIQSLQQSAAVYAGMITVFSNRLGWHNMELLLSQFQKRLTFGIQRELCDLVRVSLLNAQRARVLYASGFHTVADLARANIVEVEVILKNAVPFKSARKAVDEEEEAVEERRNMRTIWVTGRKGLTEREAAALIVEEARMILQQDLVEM

For the compound `COc1cnc(C(F)F)cc1-c1cc(CC#N)ccc1C(=O)Nc1nnc(C#CC2CC2)s1` [Compound 112, 4-(cyanomethyl)-N-(5-(cyclopropylethynyl)-1,3,4-thiadiazol-2-yl)-2-(2-(difluoromethyl)-5-methoxypyridin-4-yl)benzamide], the IC50 is < 0.25 nM. On to `COc1cnc(C(F)F)cc1-c1cc(-c2ccn(C)n2)ncc1C(=O)Nc1nnc(C#CC2CC2)s1` [Compound 113, N-(5-(cyclopropylethynyl)-1,3,4-thiadiazol-2-yl)-2′-(difluoromethyl)-5′-methoxy-6-(1-methyl-1H-pyrazol-3-yl)-[4,4′-bipyridine]-3-carboxamide], for which the concentration for half-maximal inhibition (IC50) was found to be 0.53 nM. To `Cc1nnc(Cn2cc(-c3cc(C(F)F)ccc3Cl)c(C(=O)Nc3ncc(C#CC4CC4)s3)cc2=O)o1` [Compound 114, 5-(2-chloro-5-(difluoromethyl)phenyl)-N-(5-(cyclopropylethynyl)thiazol-2-yl)-1-((5-methyl-1,3,4-oxadiazol-2-yl)methyl)-2-oxo-1,2-dihydropyridine-4-carboxamide] belongs 0.26 nM; to `Cc1nnc(Cn2cc(-c3cc(C(F)(F)F)ccc3Cl)c(C(=O)Nc3ncc(C#CC4CC4)s3)cc2=O)o1` [Compound 115, 5-(2-chloro-5-(trifluoromethyl)phenyl)-N-(5-(cyclopropylethynyl)thiazol-2-yl)-1-((5-methyl-1,3,4-oxadiazol-2-yl)methyl)-2-oxo-1,2-dihydropyridine-4-carboxamide], < 0.25 nM. As to `COc1cnc(C(F)F)cc1-c1cc(-c2ccn(C)n2)ncc1C(=O)Nc1ncc(C#CC2CC2)s1` [Compound 117, N-(5-(cyclopropylethynyl)thiazol-2-yl)-2′-(difluoromethyl)-5′-methoxy-6-(1-methyl-1H-pyrazol-3-yl)-[4,4′-bipyridine]-3-carboxamide], 2 nM corresponded to half-maximal inhibition (IC50). The compound `COc1cnc(C(F)F)cc1-c1cc(N(C)c2nnc(C)o2)ccc1C(=O)Nc1ncc(C#CC2CC2)s1` [Compound 119] displayed a half-inhibitory concentration (IC50) of 23 nM. Regarding `COc1cnc(C(F)F)cc1-c1cc(-c2nnc(C)o2)ccc1C(=O)Nc1ncc(C#CC2CC2)s1` [Compound 120], the 50% inhibitory concentration (IC50) stood at 2.5 nM. Compound `COc1cnc(C(F)F)cc1-c1cc(N2CCC(C)(O)CC2)ncc1C(=O)Nc1nnc(C#CC2CC2)s1` [Compound 121] gave an IC50 of 2 nM. With `COc1cnc(C(F)F)cc1-c1cc(-n2ccccc2=O)ncc1C(=O)Nc1nnc(C#CC2CC2)s1` [Compound 122, N-(5-(cyclopropylethynyl)-1,3,4-thiadiazol-2-yl)-2″-(difluoromethyl)-5″-methoxy-2-oxo-2H-[1,2′:4′,4″-terpyridine]-5′-carboxamide] the figure was < 0.25 nM.

Regarding `COC(=O)N1CCN(c2ccc(C(=O)Nc3nnc(C#CC4CC4)s3)c(-c3cc(C(F)F)ncc3OC)c2)C(=O)C1` [Compound 123], the 50% inhibitory concentration (IC50) was < 0.25 nM. To `COc1cnc(C(F)F)cc1-c1cc(-c2ccn(CS(C)(=O)=O)n2)ccc1C(=O)Nc1nnc(C#CC2CC2)s1` [Compound 124, N-(5-(cyclopropylethynyl)-1,3,4-thiadiazol-2-yl)-2-(2-(difluoromethyl)-5-methoxypyridin-4-yl)-4-(1-((methylsulfonyl)methyl)-1H-pyrazol-3-yl)benzamide] belongs < 0.25 nM. The compound `COc1cnc(C(F)F)cc1-c1cc(N2CCC(n3ccnc3)CC2)ncc1C(=O)Nc1nnc(C#CC2CC2)s1` [Compound 125] came in with an IC50 of 21 nM. With `Cc1nnc(Cn2cc(-c3cc(C(F)F)ncc3C)c(C(=O)Nc3ncc(C#CC4CC4)s3)cc2=O)o1` [Compound 126] the figure was < 0.25 nM; with `COc1cnc(C(F)F)cc1-c1cc(-c2ccnn2C)ncc1C(=O)Nc1nnc(C#CC2CC2)s1` [Compound 127], < 0.25 nM; with `COc1cnc(C(F)F)cc1-c1cc(N2CCN(C)C(=O)C2)ncc1C(=O)Nc1nnc(C#CC2CC2)s1` [Compound 128], 4 nM. As to `COc1cnc(C(F)F)cc1-c1cc(N2CC3(CC(C(=O)N(C)C)C3)C2)ncc1C(=O)Nc1nnc(C#CC2CC2)s1` [Compound 129], the IC50 stood at 1.6 nM.

`COc1cnc(C(F)F)cc1-c1cc(N2CC3(C2)CC(C)(O)C3)ncc1C(=O)Nc1nnc(C#CC2CC2)s1` [Compound 130, N-(5-(cyclopropylethynyl)-1,3,4-thiadiazol-2-yl)-2′-(difluoromethyl)-6-(6-hydroxy-6-methyl-2-azaspiro[3.3]heptan-2-yl)-5′-methoxy-[4 4′-bipyridine]-3-carboxamide] displayed an IC50 of 2.1 nM. `COc1cnc(C(F)F)cc1-c1cc(N2CCn3nccc3C2=O)ncc1C(=O)Nc1nnc(C#CC2CC2)s1` [Compound 133]: the IC50 is < 0.25 nM. To `COc1cnc(C(F)F)cc1-c1cc(-c2cnn(CCO)c2)ccc1C(=O)Nc1nnc(C#CC2CC2)s1` [Compound 134] belongs < 0.25 nM. To `COc1cnc(C(F)F)cc1-c1cc(-c2ccncn2)ncc1C(=O)Nc1nnc(C#CC2CC2)s1` [Compound 135] belongs < 0.25 nM; to `COc1cnc(C(F)F)cc1-c1cc(N(C)Cc2cnn(C)c2)ccc1C(=O)Nc1nnc(C#CC2CC2)s1` [Compound 136], 8.5 nM; to `COc1cnc(C(F)F)cc1-c1cc(N2CCN(C(C)=O)CC2=O)ccc1C(=O)Nc1nnc(C#CC2CC2)s1` [Compound 137], 0.26 nM. To `COc1cnc(C(F)F)cc1-c1cc(-c2nnc(C)s2)ccc1C(=O)Nc1nnc(C#CC2CC2)s1` [Compound 138] belongs < 0.25 nM; to `COc1cnc(C(F)F)cc1-c1cc(-c2ccn(C)n2)cnc1C(=O)Nc1ncc(C#CC2CC2)s1` [Compound 139, N-(5-(cyclopropylethynyl)thiazol-2-yl)-2′-(difluoromethyl)-5′-methoxy-5-(1-methyl-1H-pyrazol-3-yl)-[3,4′-bipyridine]-2-carboxamide], 61 nM; to `COc1cnc(C(F)F)cc1-c1cc(N2CCC(C)CC2=O)ncc1C(=O)Nc1nnc(C#CC2CC2)s1` (stereo not shown) [Compound 141], < 0.25 nM.

Regarding `COc1cnc(C(F)F)cc1-c1cc(N2CCC3CC3C2=O)ncc1C(=O)Nc1nnc(C#CC2CC2)s1` (stereo not shown) [Compound 142], the IC50 was < 0.25 nM. For the compound `COc1cnc(C(F)F)cc1-c1cc(N2CCNCC2=O)ccc1C(=O)Nc1nnc(C#CC2CC2)s1` [Compound 143], the IC50 is < 0.25 nM. Regarding `COc1cnc(C(F)F)cc1-c1cc(N2CCN(C(=O)OC(C)(C)C)CC2=O)ccc1C(=O)Nc1nnc(C#CC2CC2)s1` [Compound 144], the IC50 was 0.26 nM. To `COc1cnc(C(F)F)cc1-c1cc(-c2cc[nH]n2)ncc1C(=O)Nc1nnc(C#CC2CC2)s1` [Compound 145, N-(5-(cyclopropylethynyl)-1,3,4-thiadiazol-2-yl)-2′-(difluoromethyl)-5′-methoxy-6-(1H-pyrazol-3-yl)-[4,4′-bipyridine]-3-carboxamide] belongs < 0.25 nM.

Consider `COc1cnc(C(F)F)cc1-c1cc(C#CC2CCCOC2)ncc1C(=O)Nc1nnc(C#Cc2cc(C)[nH]n2)s1` (stereo not shown) [Compound 146], for which the IC50 was < 0.25 nM. With `COc1cnc(C(F)F)cc1-c1cc(OC[C@@H]2CCC(=O)N2C)ncc1C(=O)Nc1nnc(C#CC2CC2)s1` [Compound 147] the figure was 0.31 nM; with `COc1cnc(C(F)F)cc1-c1cc(OC[C@@H]2CCOC2)ncc1C(=O)Nc1nnc(C#CC2CC2)s1` [Compound 148], 0.93 nM; with `COc1cnc(C(F)F)cc1-c1cc(OC[C@H]2CCOC2)ncc1C(=O)Nc1nnc(C#CC2CC2)s1` [Compound 149], 0.37 nM. With `COc1cnc(C(F)F)cc1-c1cc(OCC2CCOCC2)ncc1C(=O)Nc1nnc(C#CC2CC2)s1` [Compound 150, N-(5-(cyclopropylethynyl)-1,3,4-thiadiazol-2-yl)-2′-(difluoromethyl)-5′-methoxy-6-((tetrahydro-2H-pyran-4-yl)methoxy)-[4,4′-bipyridine]-3-carboxamide], the IC50 was < 0.25 nM. To `COc1cnc(C(F)F)cc1-c1cc(C#CC2(C)CCCO2)ncc1C(=O)Nc1nnc(C#CC2CC2)s1` (stereo not shown) [Compound 151] belongs < 0.25 nM; to `COc1cnc(C(F)F)cc1-c1cc(Nc2nnc(C)o2)ccc1C(=O)Nc1nnc(C#CC2CC2)s1` [Compound 152], 1.2 nM; to `COc1cnc(C(F)F)cc1-c1cc(-c2nnc(C)o2)ccc1C(=O)Nc1nnc(C#Cc2cc(C)[nH]n2)s1` [Compound 153], < 0.25 nM. To `C#C[C@@H]1CC1c1nnc(NC(=O)c2cnc(-c3ccn(C)n3)cc2-c2cc(C(F)F)ncc2OC)s1` (stereo partly shown) [Compound 154] belongs < 0.25 nM; to `COc1cnc(C(F)F)cc1-c1cc(-c2ccn(C)n2)cnc1C(=O)Nc1nnc(C#CC2CC2)s1` [Compound 156], 1.1 nM; to `COc1cnc(C(F)F)cc1-c1cc(-c2ccn(C)n2)ncc1C(=O)Nc1nc(C)c(C#CC2CC2)s1` [Compound 157], 115 nM. With `COc1cnc(C(F)F)cc1-c1cc(N2CCOC3(CC3)C2=O)ncc1C(=O)Nc1nnc(C#CC2CC2)s1` [Compound 158] the figure was < 0.25 nM. The compound `COc1cnc(C(F)F)cc1-c1cc(NCCOCC(=O)O)ncc1C(=O)Nc1nnc(C#CC2CC2)s1` [Compound 159] showed an IC50 of 0.79 nM. `COc1cnc(C(F)F)cc1-c1cc(-c2ccn(C)n2)ncc1C(=O)Nc1nnc(C#Cc2cc(C)[nH]n2)s1` [Compound 161]: the half-maximal inhibitory concentration (IC50) is < 0.25 nM. The compound `COc1cnc(C(F)F)cc1-c1cc(N2CC3(COC3)C2)ncc1C(=O)Nc1nnc(C#CC2CC2)s1` [Compound 162] gave a concentration for half-maximal inhibition (IC50) of 13 nM. With `COc1cnc(C(F)F)cc1-c1cc(-n2ccncc2=O)ccc1C(=O)Nc1nnc(C#CC2CC2)s1` [Compound 163] the figure was < 0.25 nM. To `COc1cnc(C(F)F)cc1-c1cc(-c2nnc(C)o2)ccc1C(=O)Nc1nc(C)c(C#CC2CC2)s1` [Compound 164] belongs 289 nM.
